Experimental data reported in patent US9839690B2, “Singlet oxygen-labile linkers and methods of production and use thereof” (The Board of Regents of the University of Oklahoma, priority 2012, dated 2017).

How the values were obtained:
[1] = 1H-NMR of drugs and model linker compound with CMP-OMe before and after irradiation; type: physicochemical
Description: The cleavage of aminoacrylate linkers after irradiation was supported by the increased coumarin fluorescence of 9 by irradiation (FIGS. 14-21). The unique peak of each compound was integrated against the peak of CMP-OMe (four protons of CMP-OMe at 9.7 ppm, FIG. 14), which was known to be inert to singlet oxygen oxidation. […] However, we observed 77% decrease of the proton peak of the aminoacrylate linker after the irradiation (FIG. 21). […] PD 9 had negligible coumarin emission compared to that of free coumarin at the equimolar concentration. In the presence of 10 μM of 9, MCF-7 cells were incubated for 24 h to activate dPS. Then, the samples were irradiated by visible light (540±10 nm, 8 mW/cm^2, 30 min). […] The released free coumarin was also detected and quantified by HPLC based on the standard curve of free coumarin. As such, almost 99% of 9 released coumarin while only 64% of dPS of 9 were activated when irradiated.

MCF-7 cells [2] = experiment: Dark toxicity, MTT cell viability (Example 4); type: cell-based; conditions: Homo sapiens, MCF7, light or radiation study; MCF-7, 96 hr, no irradiation
Procedure: MCF-7 cells (5,000 cells/well) were seeded in 96 well plates. After the plates were incubated for 24 hr, the culture medium was aspirated and the cells were washed with cold PBS (100 μL) once. Then, prodrug in the 200 μL culture media was added to cells. The final concentrations ranging from 1 nM to 1 μM were used to perform concentration dependent cell viability and 25 nM prodrug was used to perform time dependent drug release study. After 96 hr incubation, the cell viability was determined by MTT assay detailed below. The experiments were performed in triplicate. IC50 values were calculated with GraphPad Prism 5.
Cell viability was assessed by MIT assay.^89 In brief, after thoroughly washing the cells 2× with PBS buffer, the cells were treated with 200 μL 0.5 mg/mL MIT (3-(4,5-dimethylthiazol-2-yl)-2,5-diphenyltetrazolium bromide, a yellow tetrazole). Subsequently, the cells were incubated at 37° C. under a humidified atmosphere of 5% CO2 for 4 h. After 4 h of incubation, the solution from each well was taken out, and washed with PBS one time and added 100 μL DMSO. The plates were shaken at room temperature for 10 min and read immediately at 570 nm on a microplate reader (Spectra max, Molecular devices). Cell viability (%) was expressed as a ratio of treated cells to control cells.

colon 26 cells = experiment: Antitumor efficacy study, s.c. colon 26 tumors; type: in vivo, BALB/c mice; conditions: similar dose, pilot studies
Procedure: The antitumor effects of the prodrugs after irradiation were evaluated by using a mouse tumor model: BALB/c mice having s.c. tumors produced by injection of colon 26 cells. After 1.5 h-post i.p. injection of prodrugs, each tumor was irradiated by 690 nm diode laser (360 J/cm^2=200 mW/cm^2 for 30 min) on days 0, 1 and 2. The treatment conditions were determined from pilot studies although those conditions might not have been the optimal conditions.
Four- to six-week-old BALB/c mice (18-20 g, Charles River Laboratories, Inc.) were used for the murine tumor model. The mice were implanted s.c. with 2×10^6 colon 26 cells in PBS (100 μL) on the lower back-neck region. Tumor growth was monitored with digital caliper. Two dimensions l and w (l: the longest axis of tumor and w: the axis perpendicular to l) were used to calculate tumor volume (lw^2/2). Mice with a tumor of the diameter 3-5 mm were used for the experiments.
Samples were filtered using 0.2 μm sterile syringe filter. To each mouse, 200 μL of sample was injected via i.p. once a day on day 0, 1, and 2. Then, 1 h 30 min later mice were anesthetized with ketamine 80 mgkg^−1 and xylazine 6 mgkg^−1, i.p. injection. Tumors were irradiated with a 690 nm diode laser at 200 mW/cm^2 for 30 min (360 J/cm^2). Tumor size was measured with the digital caliper every day after the treatment.

tubulin = biological target: T1, tubulin (Sus scrofa, UniProt P02554); experiment: Fluorescence-based tubulin polymerization assay; type: biochemical
T1 construct: purchased Cytoskeleton, Inc. BK011P
Procedure: Paclitaxel and CA4 were used as positive control drugs (a polymerization enhancer and an inhibitor, respectively) in addition to the negative control group (FIG. 32).
The fluorescence-based tubulin polymerization was determined by using a kit supplied by Cytoskeleton, Inc. (cat #=BK011P). Its basic principle is that the fluorescence reporter increases as it is incorporated into microtubules during the course of polymerization. The assay was performed following the experimental procedure as described in version 2.1 of the tubulin polymerization assay kit manual. Briefly, the test drug (final concentration=3 μM) was added to a mixture of tubulin and GTP in a buffer solution, and the reaction mixture was incubated at 37° C. Fluorescence was monitored (excitation=360 nm and emission=450 nm) by using a fluorescence plate reader (SpectraMax Gemini EM, Molecular device). Paclitaxel and CA4 were included in the assay as positive controls in addition to the negative control (vehicle only).

MCF-7 cells [3] = experiment: Dark toxicity, MTT (Example 5); type: cell-based; conditions: Homo sapiens, MCF7, 72 h; MCF-7, dark, 3 days; read-out: IC50D (dark toxicity)
Procedure: It seemed that the bulky groups, CMP-L and CMP-NCL, reduced the cytotoxic activity of CA4, presumably through the interference of its binding to tubulin as estimated by the modeling study.
MCF-7 cells were maintained in minimum essential medium (α-MEM) supplemented with 10% bovine growth serum, 2 mM L-glutamine, 50 units/mL penicillin G, 50 μg/mL streptomycin and 1.0 μg/mL fungizone. MCF-7 cells (5,000 cells/well) were seeded on 96-well plates in the medium and then incubated for 24 h at 37° C. in 5% CO2. Stock solutions (2 mM) were prepared in DMSO. The stocks were further diluted with medium to get necessary final concentrations. The diluted solution (10 μL) was then added to each well (190 μL). The plates were incubated for 24 h and then removed from the incubator. For the phototoxicity study: The plate without a cover was placed on an orbital shaker (Lab-line, Barnstead International) and irradiated by using a diode laser (690 nm, 5.6 mW/cm^2) for 30 min. To ensure uniformity of the light during the irradiation, each plate was shaken gently on an orbital shaker. For the dark toxicity study: Plates were kept in the dark for 30 min, and then returned to the incubator. Cell viability was determined after 3 days by using the MTT assay. Briefly, a 10 μL solution of MTT (10 mg in 1 mL PBS buffer) was added to each well and the plate was incubated for 4 h. Then, the MTT solution was removed and the cells were dissolved in 200 μL of DMSO and the absorbance within each well was measured at 570 nm with background subtraction at 650 nm. The cell viability was then quantified by measuring the absorbance of the treated wells compared to that of the untreated wells (controls) and expressed as a percentage.

[4] = Photooxygenation kinetics (DPBF fluorescence, Rose Bengal, Stern-Volmer analysis); type: physicochemical; conditions: acetone, 15° C., 540±10 nm
Procedure: Fluorescence emission was used to monitor the disappearance of 1,3-diphenylisobenzofuran (DPBF) which was recorded on a LS 50 B luminescence spectrometer (Perkin Elmer, USA). DPBF (5×10^−2 M) and Rose Bengal (0.5×10^−5 M) stock solution in dry acetone was prepared. In addition, varying known concentrations of 2,3-dimethylbutene, (E)-N-phenyl-3-(piperidin-1-yl)acrylamide (a model compound with aminoacrylate linker) and Combretastatin A-4 (CA-4) were freshly prepared. Using a tungsten-halogen light source filtered at 540±10 nm (Lumacare), the appropriate solution of DPBF-Rose Bengal with or without a substrate placed in a fluorescence cuvette and held in a thermostated cell at 15° C. with stirring was irradiated with 0.1 mW/cm^2 light intensity at 30 sec interval. The fluorescence intensity of DPBF at 455 nm as a function of time provided the rate of photooxygenation of DPBF. […] As such, the reaction kinetics could be determined in light of the following analysis.
Using the above kinetic analysis and equation (5), the second order rate constant (k) of the aminoacrylate linker was experimentally determined to be 2.5×10^7 M^−1s^−1, wherein k=kr+kq
Then, β value was calculated from the plot of S0/Sx vs. [A]. […] From the kd value of the solvent (kd of acetone=38,400 s^−1), β value of A was calculated. […]

T1 sequence (P02554 whole entry): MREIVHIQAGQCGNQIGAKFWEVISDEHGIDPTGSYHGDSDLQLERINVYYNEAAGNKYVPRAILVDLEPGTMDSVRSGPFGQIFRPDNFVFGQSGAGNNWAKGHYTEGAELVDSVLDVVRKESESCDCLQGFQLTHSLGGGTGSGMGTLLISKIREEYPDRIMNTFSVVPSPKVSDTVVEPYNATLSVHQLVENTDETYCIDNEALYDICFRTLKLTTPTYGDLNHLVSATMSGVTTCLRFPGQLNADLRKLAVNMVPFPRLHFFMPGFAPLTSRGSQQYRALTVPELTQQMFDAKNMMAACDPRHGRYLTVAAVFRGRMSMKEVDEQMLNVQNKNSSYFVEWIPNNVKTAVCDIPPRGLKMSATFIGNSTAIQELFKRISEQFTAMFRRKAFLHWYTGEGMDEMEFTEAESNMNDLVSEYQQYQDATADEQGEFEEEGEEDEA
T1 sequence (P02550 whole entry partner): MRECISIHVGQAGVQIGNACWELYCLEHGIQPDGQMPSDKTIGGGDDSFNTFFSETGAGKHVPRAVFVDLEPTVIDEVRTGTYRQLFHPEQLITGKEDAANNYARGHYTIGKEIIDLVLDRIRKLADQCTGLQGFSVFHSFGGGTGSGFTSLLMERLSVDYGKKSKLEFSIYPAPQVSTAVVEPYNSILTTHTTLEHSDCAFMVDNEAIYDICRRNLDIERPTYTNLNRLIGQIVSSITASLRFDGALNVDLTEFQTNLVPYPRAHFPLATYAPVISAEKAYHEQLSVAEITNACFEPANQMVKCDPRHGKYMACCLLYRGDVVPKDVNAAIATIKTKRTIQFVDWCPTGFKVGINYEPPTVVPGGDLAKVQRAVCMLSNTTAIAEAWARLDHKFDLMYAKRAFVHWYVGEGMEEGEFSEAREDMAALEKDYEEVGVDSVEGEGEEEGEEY

| Structure (SMILES) | Oxidation under the irradiation condition ([1]; 1H-NMR) | IC50 (MCF-7 cells [2]) [nM] | Significant tumor growth delay by CA4 itself (colon 26 cells) | Pattern of kinetic trace of tubulin polymerization (tubulin; 3 μM) | inhibition at 3 µM (tubulin; read-out: Inhibition of tubulin polymerization) [%] | IC50 (MCF-7 cells [3]) [nM] | Decrease of the proton peak after irradiation ([1]; CDCl3, 1H-NMR) [%] | Second order rate constant (k = kr+kq) with singlet oxygen [4] [M⁻¹ s⁻¹] |
| --- | --- | --- | --- | --- | --- | --- | --- | --- |
| COc1ccc(/C=C\c2cc(OC)c(OC)c(OC)c2)cc1O [CA-4, Combretastatin A-4] | not oxidized at all | 8 | not seen | inhibitor | 100 | 9 |  |  |
| O=C(/C=C/N1CCCCC1)Nc1ccccc1 [Compound 9 (Example 3), (E)-N-Phenyl-3-(piperidin-1-yl)acrylamide] |  |  |  |  |  |  | 77 | 2.5e+07 |
